Reference: patent US6627604B2, “Memno peptides, process for their preparation and use thereof” (priority 2000, dated 2003)
In brackets after ≈: the same amount, converted by molar mass. Residues, ends and D or L forms follow the SMILES beside them. *: point of attachment. X1 = CC1CCC2C(C)(C)C(O)CCC2(C)C12Cc1c(O)cc3c(c1O2)CN(C(CC[S+](C)[O-])C(=O)*)C3=O

Columns and labels:
[1] = tested on: Streptococcus pyogenes 77A
[2] = tested on: Staphylococcus aureus 707E
[3] = tested on: Staphylococcus aureus 285
[4] = tested on: Staph. epidermidis 5747IIW
[5] = target: G-6-P phosphatase (Homo sapiens, UniProt P35575); experiment: Inhibition of G-6-P phosphatase; assay type: biochemical
[6] = tested on: Enterococcus faecium Md8B
[7] = tested on: Streptococcus pyogenes 308A
[8] = tested on: Enterococcus faecium VR1
[9] = tested on: Staphylococcus aureus SG 511
[10] = tested on: Enterococcus faecium VR2
[11] = tested on: Streptococcus pyogenes VR3; experiment: Minimum inhibitory concentration; assay type: cell-based; details: resistance against: Vancomycin
[12] = tested on: Staphylococcus aureus 701E
[13] = tested on: Staphylococcus aureus 9 Tüb
[14] = target: T1, SERCA2 (Canis lupus familiaris, UniProt O46674); experiment: Colorimetric Ca2+ ATPase (SERCA2) activation test in dog heart microsomes; assay type: biochemical; details: Ca2+ ATPase activity in dog heart microsomes, phosphate release at 620 nm
T1 construct: activity of the Ca^2+ ATPase in dog heart microsomes; from tissue; host or cells: dog heart microsomes
From the text: For the detection of the activators of SERCA2 which imitate the phosphorylation effect of PLB, a […] test may be run which determines the activity of the Ca^2+ ATPase in dog heart microsomes in the presence of test substances. The test may be carried out in 96-well microtiter plates. The enzymatic release of inorganic phosphate from ATP, which forms a blue colored complex with ammonium molybdate which can be measured at 620 nm in a spectrophotometer, may be measured.

[15] = tested on: Staph. epidermidis 799
[16] = tested on: Staphylococcus aureus 503
[17] = target: glucose-6-phosphate translocase (G-6-P—TL) (Homo sapiens, UniProt O43826); experiment: Inhibition of glucose-6-phosphate translocase; assay type: biochemical
[18] = tested on: Staph. epidermidis ZH 2c
[19] = tested on: Staph. epidermidis 291
[20] = tested on: Staphylococcus aureus FH 1982
[21] = tested on: Staph. epidermidis 763

Chain of glucose-6-phosphate translocase (G-6-P—TL) (O43826 whole entry, species assumed): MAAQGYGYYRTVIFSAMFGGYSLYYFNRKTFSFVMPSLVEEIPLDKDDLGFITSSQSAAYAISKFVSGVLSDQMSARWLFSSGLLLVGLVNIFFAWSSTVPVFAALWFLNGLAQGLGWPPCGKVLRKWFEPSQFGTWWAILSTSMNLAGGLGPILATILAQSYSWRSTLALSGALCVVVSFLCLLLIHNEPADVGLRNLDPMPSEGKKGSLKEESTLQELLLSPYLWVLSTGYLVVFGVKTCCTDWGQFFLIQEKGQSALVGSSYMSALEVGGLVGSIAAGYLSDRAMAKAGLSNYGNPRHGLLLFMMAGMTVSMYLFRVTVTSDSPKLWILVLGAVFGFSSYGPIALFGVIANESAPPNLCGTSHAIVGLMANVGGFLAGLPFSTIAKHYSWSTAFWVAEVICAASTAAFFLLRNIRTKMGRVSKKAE
T1 sequence (O46674 whole entry): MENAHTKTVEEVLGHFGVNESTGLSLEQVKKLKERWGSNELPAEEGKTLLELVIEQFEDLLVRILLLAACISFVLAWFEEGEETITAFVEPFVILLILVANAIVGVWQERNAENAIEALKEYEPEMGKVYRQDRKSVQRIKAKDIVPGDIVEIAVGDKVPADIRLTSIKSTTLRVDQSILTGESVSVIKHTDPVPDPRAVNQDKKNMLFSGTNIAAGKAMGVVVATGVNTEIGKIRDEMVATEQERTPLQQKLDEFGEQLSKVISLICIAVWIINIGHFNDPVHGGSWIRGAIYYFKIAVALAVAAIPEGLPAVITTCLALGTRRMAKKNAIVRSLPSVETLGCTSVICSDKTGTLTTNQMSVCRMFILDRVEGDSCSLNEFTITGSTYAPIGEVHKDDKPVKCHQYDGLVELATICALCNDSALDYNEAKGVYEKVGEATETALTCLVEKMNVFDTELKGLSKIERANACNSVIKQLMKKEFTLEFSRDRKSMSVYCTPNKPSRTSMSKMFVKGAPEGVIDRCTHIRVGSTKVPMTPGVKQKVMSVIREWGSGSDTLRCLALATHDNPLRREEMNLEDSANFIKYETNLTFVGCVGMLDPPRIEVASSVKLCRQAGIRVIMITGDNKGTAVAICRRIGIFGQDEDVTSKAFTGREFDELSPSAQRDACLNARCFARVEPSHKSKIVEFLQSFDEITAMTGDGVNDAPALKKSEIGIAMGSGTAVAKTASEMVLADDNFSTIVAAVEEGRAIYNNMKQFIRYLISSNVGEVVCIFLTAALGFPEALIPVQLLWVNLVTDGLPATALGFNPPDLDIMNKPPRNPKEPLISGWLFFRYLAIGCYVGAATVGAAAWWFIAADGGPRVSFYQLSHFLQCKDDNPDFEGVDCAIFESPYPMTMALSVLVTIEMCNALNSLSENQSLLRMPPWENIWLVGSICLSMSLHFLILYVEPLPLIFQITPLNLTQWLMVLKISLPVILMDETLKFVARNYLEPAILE
Chain of G-6-P phosphatase (P35575 whole entry): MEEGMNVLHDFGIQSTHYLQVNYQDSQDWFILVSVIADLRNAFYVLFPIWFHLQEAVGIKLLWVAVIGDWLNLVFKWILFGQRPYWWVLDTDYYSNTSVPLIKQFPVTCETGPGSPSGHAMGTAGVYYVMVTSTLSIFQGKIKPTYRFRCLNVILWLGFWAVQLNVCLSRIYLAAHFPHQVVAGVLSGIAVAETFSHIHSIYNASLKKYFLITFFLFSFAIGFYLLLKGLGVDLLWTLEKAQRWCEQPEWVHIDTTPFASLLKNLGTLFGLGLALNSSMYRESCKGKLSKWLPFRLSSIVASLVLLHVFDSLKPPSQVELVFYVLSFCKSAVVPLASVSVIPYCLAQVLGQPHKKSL

With `CC(C)CC(NC(=O)C1CCCN1C(=O)C(CCC(N)=O)NC(=O)C(Cc1c[nH]cn1)NC(=O)C1CCCN1C(=O)C(CCC(N)=O)NC(=O)C(Cc1cnc[nH]1)NC(=O)C(CC[S+](C)[O-])N1Cc2c(cc(O)c3c2OC2(C3)C(C)CCC3C(C)(C)C(O)CCC32C)C1=O)C(=O)N1CCCC1C(=O)N1CCCC1C(=O)O` (stereo not drawn) [memno peptide A] (X1-HQPHQPLPP-OH; configuration not given here) the MIC [1] was 4 µg/mL (≈ 2.55 µM), the MIC [2] was 16 µg/mL (≈ 10.2 µM) and the MIC [3] was 16 µg/mL (≈ 10.2 µM). The MIC [4] was 32 µg/mL (≈ 20.4 µM), the “inhibition of the coenzyme G-6-P phosphatase” value [5] was “does not inhibit” and the MIC [6] was 8 µg/mL (≈ 5.11 µM). For the same compound, the MIC [7] was 8 µg/mL (≈ 5.11 µM), the MIC [8] was over 64 µg/mL and the MIC [9] was 16 µg/mL (≈ 10.2 µM). It also gave an MIC [10] of over 64 µg/mL, an MIC [11] of over 64 µg/mL and an MIC [12] of 16 µg/mL (≈ 10.2 µM). The MIC [13] was 16 µg/mL (≈ 10.2 µM), the “activates SERCA2 in concentrations from” value [14] was at least 12.5 µM and the MIC [15] was 8 µg/mL (≈ 5.11 µM). For the same compound, the MIC [16] was 16 µg/mL (≈ 10.2 µM), the “inhibitory action on glucose-6-phosphate translocase (G-6-P—TL)” value [17] was “exhibits selective activities against G-6-P—TL” and the MIC [18] was 16 µg/mL (≈ 10.2 µM). For the same compound, the MIC [19] was 8 µg/mL (≈ 5.11 µM), the MIC [20] was 16 µg/mL (≈ 10.2 µM) and the MIC [21] was over 16 µg/mL.
